Key:
Drosophila melanogaster = experiment: Polymorph lethality, polyethylene glycol coated crystalline thin film; type: in vivo; details: for average knockdown time / median knockdown time (KT50): polyethylene glycol coated crystalline film (2.2*2.2 cm^2)
Source text: FIGS. 7A-7B are a lethality comparison of the two forms of deltamethrin. FIG. 7A is a graph depicting the velocities of fruit flies exposed to crystalline films (2.2*2.2 cm^2) of deltamethrin Form I and II; FIG. 7B is a comparison of Drosophila melanogaster knockdown times on crystalline films (2.2*2.2 cm^2) of deltamethrin Form I and Form II.
The knockdown times for neat thin films are too short to allow a valid comparison of their lethality. Therefore, thin films of deltamethrin Form I and Form II were prepared and partially coated by nebulized polyethylene glycol, producing islands of inert material with a small fraction of the deltamethrin film exposed (FIG. 7B). […] The corresponding average knockdown times and median knockdown times (KT50) are denoted. The average knockdown times for polyethylene glycol coated deltamethrin Form I and Form II crystalline film were 385 minutes and 70 minutes, respectively. The KT50 values were 400 minutes and 61 minutes, respectively (FIG. 7B).
This confirms that Form I dust is transformed to Form II dust by the microwave heating treatment.

[1] = tested on: fruit flies (Drosophila melanogaster); experiment: Polymorph lethality, dust, residual exposure method, fruit flies; type: in vivo; details: for average knockdown time / median knockdown time (KT50): 2 mg deltamethrin dust; for average knockdown time / median knockdown time (KT50) / longest survival (no individual survived more than) / onset of hyperactivity: female fruit flies; for longest survival (no individual survived more than) / onset of hyperactivity: 2 mg dust in 35 mm Petri dish
Protocol: (§1) The effect of deltamethrin polymorphs on fruit flies was determined by the residual exposure method. Bruck, D. J.; Bolda, M.; Tanigoshi, L.; Klick, J.; Kleiber, J.; DeFrancesco, J.; Gerdeman, B.; Spitler, H. Laboratory and field comparisons of insecticides to reduce infestation of Drosophila suzukii in berry crops. Pest. Manag. Sci. 2011, 67, 1375-1385. Lethality assays were performed for each powder sample as well as a control. Female fruit flies (Drosophila melanogaster) were temporarily anesthetized by CO2 exposure, then transferred to the 35 mm diameter petri dishes with deltamethrin dust. The dishes were covered with their mating top and the motion of the fruit flies was recorded to establish knockdown time (i.e., the time after which there was no further translational motion).
The lethalities of the two crystalline forms of deltamethrin were compared by exposing fruit flies (Drosophila melanogaster), a well-established model for pesticide development (Schneider, D. Using Drosophila as a Model Insect. Nat. Rev. Genet. 2000, 1, 218-226), to 2 mg of the respective dusts (containing […] deltamethrin Form I or Form II) dispersed evenly in 35 mm-diameter plastic Petri dishes. Each trial was performed in triplicate for each crystalline form, as well as a control.
The motions of fruit flies were monitored by a video camera. A custom designed video process programmer was used to record the onset of hyperactivity and to track the time required for the expiration of the flies, as measured by knockdown. […] (FIG. 5A). Both the onset of hyperactivity and death occurred much later for deltamethrin Form I-exposed flies.
(§2) Lethality was deduced by the standard measurement of knockdown time, defined as time when a fly is immobile in a supine or sideways position for at least one second (i.e., no translational motion). Lindquist, A. W.; Jones, H. A.; Madden, A. H. DDT Residual-type sprays as affected by light. J. Econ. Entomol. 1946, 39, 55-59. Paralyzed flies never recover.
FIGS. 5A and 5B depict the graphs of the lethality comparison of the two forms of deltamethrin, in terms of fly velocities and knockdown times. The corresponding average knockdown times and median knockdown times (KT50) are denoted. The median knockdown time (KT50) for each polymorph was determined from multiple trials using twenty female flies each. KT50 is defined as the time required to render 50 percent of the insects motionless. Kawada, H.; Dida, G. O.; Ohashi, K.; Komagata, O.; Kasai, S.; Tomita, T.; Sonye, G.; Maekawa, Y.; Mwatele, C.; Njenga, S. M.; Mwandawiro, C; Minakawa, N.; Takagi, M. Multimodal pyrethroid resistance in malaria vectors, Anopheles gambiae s.s., Anopheles arabiensis, and Anopheles funestus s.s. in Western Kenya. PLoS One 2011, 6, No. e22574; Limoee, M.; Ladonni, H.; Enayati, A. A.; Vatandoost, H.; Aboulhasani, M. Detection of pyrethroid resistance and cross resistance to DDT in seven field-collected strains of the German cockroach, Blattella germanica (L.) (Dictyoptera: Blattellidae). J Biol. Sci. 2006, 6, 382-387. The average knockdown times for 2 mg deltamethrin dusts with Form I and Form II were 123 minutes and 21 minutes, respectively. The KT50 values were 113 minutes and 20 minutes, respectively (FIG. 5B).

[2] = tested on: yellow fever mosquitos (Aedes aegypti); experiment: Polymorph lethality, dust, residual exposure method, Aedes mosquitoes; type: in vivo; details: for average knockdown time / median knockdown time (KT50): 2 mg deltamethrin dust
Protocol: as §1, with “on yellow fever mosquitos (Aedes aegypti)” for “on fruit flies”, “each dust” for “each powder”, “Female Aedes mosquitoes” for “Female fruit flies (Drosophila melanogaster)”, “the 90” for “the 35”, “the mosquitoes” for “the fruit flies”
The lethalities of the two crystalline forms of deltamethrin were compared by exposing yellow fever mosquitos (Aedes aegypti) to 2 mg of the respective dusts (containing […] deltamethrin Form I or Form II) dispersed evenly in 90 mm-diameter plastic Petri dishes. Each trial was performed in duplicate for each crystalline form, as well as a control.
The motions of mosquitoes were monitored by a video camera. A custom designed video process programmer was used to record the onset of hyperactivity and to track the time required for the expiration of the mosquitoes, as measured by knockdown. No Form I-exposed fly survived more than 300 minutes. […] (FIG. 6A). The death occurred much later for deltamethrin Form I-exposed mosquitoes.
as §2, with “mosquito” for “fly”
FIGS. 6A and 6B depict the graphs of the lethality comparison of the two forms of deltamethrin, in terms of mosquito velocities and knockdown times. The corresponding average knockdown times and median knockdown times (KT50) are denoted. The median knockdown time (KT50) for each polymorph was determined from multiple trials using twenty female mosquitoes each. KT50 is defined as the time required to render 50 percent of the insects motionless. Kawada, H.; Dida, G. O.; Ohashi, K.; Komagata, O.; Kasai, S.; Tomita, T.; Sonye, G.; Maekawa, Y.; Mwatele, C.; Njenga, S. M.; Mwandawiro, C; Minakawa, N.; Takagi, M. Multimodal pyrethroid resistance in malaria vectors, Anopheles gambiae s.s., Anopheles arabiensis, and Anopheles funestus s.s. in Western Kenya. PLoS One 2011, 6, No. e22574; Limoee, M.; Ladonni, H.; Enayati, A. A.; Vatandoost, H.; Aboulhasani, M. Detection of pyrethroid resistance and cross resistance to DDT in seven field-collected strains of the German cockroach, Blattella germanica (L.) (Dictyoptera: Blattellidae). J. Biol. Sci. 2006, 6, 382-387. The average knockdown times for 2 mg deltamethrin Form I and Form II dust were 202 minutes and 22 minutes, respectively. The KT50 values were 192 minutes and 21 minutes, respectively (FIG. 6B).

[3] = Phase behavior / thermodynamic stability of deltamethrin polymorphs; type: physicochemical
Protocol: Thermodynamic stability of deltamethrin polymorphs was evaluated by the phase transformation behaviors and respective melting points. […] Rarely, transformation from Form II to Form I can be observed between crossed polarizers when spherulites of Form II are in contact with concomitant polycrystalline Form I (FIG. 4A, 4B). Form II fibers grow radially along their <010> direction. […] Upon phase transformation to Form I, the orientation of new grains become misaligned, resulting in a loss of observable birefringence. At room temperature the transformation can be observed by a moving growth front, which advances at a velocity of 0.3 μm/min.

[4] = female Aedes aegypti, 2 mg dust in 90 mm Petri dish

| SMILES | average knockdown time (Drosophila melanogaster) | median knockdown time (KT50) (Drosophila melanogaster) | average knockdown time [1] | median knockdown time (KT50) [1] | longest survival (no individual survived more than) [1] | onset of hyperactivity [1] | average knockdown time ([2]; female Aedes aegypti) | median knockdown time (KT50) ([2]; female Aedes aegypti) | longest survival (no individual survived more than) [2, 4] | knockdown times, comparison of the forms (Drosophila melanogaster; thin films) | lethality ranking ([1]; dust, fruit flies) | lethality ranking ([2]; dust, Aedes aegypti) | onset of hyperactivity [2, 4] | transformation of Form II to Form I on storage ([3]; crystalline film confined between glass slides, 6 months at room temperature) | room temperature stability ranking ([3]; room temperature) | velocity of the growth front of the Form II to Form I transformation ([3]; room temperature, Form II spherulites in contact with polycrystalline Form I) |
| --- | --- | --- | --- | --- | --- | --- | --- | --- | --- | --- | --- | --- | --- | --- | --- | --- |
| CC1(C)[C@H](C(=O)O[C@H](C#N)c2cccc(Oc3ccccc3)c2)[C@@H]1C=C(Br)Br [Form I, (S)-cyano(3-phenoxyphenyl) methyl (1R,3R)-3-(2,2-dibromovinyl)-2,2-dimethylcyclopropane-1-carboxylate, reference compound] | 385 min | 400 min | 123 min | 113 min | ≤ 210 min | 40 min | 202 min | 192 min | ≤ 300 min |  |  |  |  |  |  |  |
| CC1(C)[C@H](C(=O)O[C@H](C#N)c2cccc(Oc3ccccc3)c2)[C@@H]1C=C(Br)Br [Form II, (S)-cyano(3-phenoxyphenyl) methyl (1R,3R)-3-(2,2-dibromovinyl)-2,2-dimethylcyclopropane-1-carboxylate] | 70 min | 61 min | 21 min | 20 min | ≤ 40 min | as soon as they were exposed | 22 min | 21 min | ≤ 30 min | shorter for Form II than for Form I | more lethal than Form I | more lethal than Form I | as soon as they were exposed | did not transform to Form I | Form I> Form II | 0.3 μm/min |
